Experiments:
Caspase-3 = Caspase-3 protein expression in HGC-27 cells (immunofluorescence); assay type: cell-based; conditions: n = 6
Description: (§1) The sterilized cell transfer membrane was taken and placed into a 24-well plate, which was seeded with 1 mL (1×10^5 cells/mL) cell suspension, and cultured for 24 h. Drug-containing medium was added, The negative control groups and administration groups were set, with the experimental groups intervened for 24-48 h. The plate was washed with PBS, and fixed with 4% paraformaldehyde for 15 min. It was treated with 0.1% TritonX-100, and washed with PBS, blocked with 1:10 diluted normal serum blocking solution for 15 min. The plate was added 1:100 diluted primary antibody, placed at 4° C. overnight. The plate was washed with PBS, to which 1:100 diluted secondary antibodies was added and incubated at room temperature for 30 min. The plate was washed with PBS, to which 1:100 diluted SABC-FITC was added, and re-incubated at room temperature for additional 30 min. The unbound FITC was washed with PBS. We observed and taken pictures under fluorescence microscope, and analyzed the fluorescence intensity by Bioflux Montage software. 6 fields were selected randomly under microscope for each group and the integral optical density value of cells was calculated.

XIAP = XIAP protein expression in HGC-27 cells (immunofluorescence); assay type: cell-based; conditions: n = 6
Description: as §1

HUVECs = assay: HUVEC viability (MTT method); assay type: cell-based; conditions: Homo sapiens, 48 h
Description: Test Methods: The effect of ZYS-1 on the viability of HUVECs was determined by MTT method. The HUVECs in logarithmic growth phase were taken and digested with 0.25% trypsin, centrifuged and resuspended in ECM complete medium to formulate into […] single cell suspension. The cells were seeded in 96-well culture plates at a density of 1×10^4 cells/well, with a volume of 100 μL per well. They were placed and cultured in the incubator with 37®, 5% CO2. After culturing 24 h, […] different concentrations of ZYS-1 solution were added to obtain the final concentrations of drugs at 0.1, 0.5, 1, 5, 10, 50 and 100 μM. Meanwhile, the positive control group was set as etoposide at a final concentration of 10 μM, and the negative control was an equal amount of 0.1% DMSO solution. Each concentration of the experimental groups and the control groups all were set five replicates, with 100 μL of drugs per well. The blank control group is additionally set as 200 μL complete medium. The cells were placed and cultured in the incubator with 37 m, 5% CO2. After culturing for 48 h, 20 μL MTT solution (5 mg/mL) was added to each well, which was continued to be cultured for another 4 h. […] The light absorbance value of each well was measured by enzyme-linked immunosorbent assay. The measured wavelength was 570 nm and the result was recorded. […]

HGC-27 cells = assay: Three-dimensional migration (Transwell assay), HGC-27; assay type: cell-based; conditions: for Cell number (transmembrane cells): 24 h, n = 9
Description: Starved cells were digested and collected, which were suspended in serum-free medium. The cell intensity was adjusted into 3×10^5 s cells/mL. 100 μL of the cell suspension was added into the upper chamber and 700 μL of medium with 10% serum to the lower chamber per well. According to the experimental design, 50 μL serum-free medium was added per well for the control group, 50 μL of drug-containing serum-free medium was added for the administration groups. They were continued to be cultured in the incubator for another 24 h. The upper chamber was taken, with methanol fixation for 30 min, dyed with Giemsa stain for 30 min, rinsed with clean water twice. The cells on the bottom membrane surface of the upper chamber were carefully wiped off with a wet cotton swab, dried in the air. With the bottom up, they were transferred onto glass slide and sealed with neutral gum. Under the microscope, nine random fields were taken and the transmembrane cells therein were counted. The average values were statistically calculated.

HT-1080 cells = assay: HT-1080 cell invasion (Transwell, matrigel); assay type: cell-based, human
Description: The matrigel was thawed at 4° C. overnight and diluted with serum-free medium precooled at 4° ? t 1:2. 30 μL of the diluted matrigel was added vertically in the center of the bottom of the upper chamber, allowed to stand at r.m. for 20 min, and then incubated at 37° C. for 60 min. It was observed under the microscope until gelling, hydrated with the serum-free medium for use. The treated tumor cells with drugs for 48 h were digested and collected, and then the cells were suspended with serum free medium. The cell intensity was adjusted into 2.5×10^5 cells/mL, and kept cultured in the incubator for another 24 h. The upper chamber was taken, with methanol fixation for 30 min, dyed with Giemsa stain for 30 min, rinsed with clean water twice. The cells on the bottom membrane surface of the upper chamber were carefully wiped off with a wet cotton swab, dried in the air. With the bottom up, they were transferred onto glass slide and sealed with neutral gum. Under the microscope, nine random fields were taken and the transmembrane cells therein were counted. The average values were statistically calculated.

[1] = Homo sapiens, HGC-27, 24 h, read-out: Inhibition Rate

C=CCc1cccc(/C=N/NC(=O)CN2CCN(Cc3ccccc3)CC2)c1O [ZYS-1, 1-Piperazineacetic acid, 4-(phenylmethyl)-2-[[2-hydroxy-3-(2-propen-1-yl)phenyl]methylene]]
Caspase-3 protein expression (integral optical density value) (Caspase-3; 4 μM): 37.26 ± 0.39
Caspase-3 protein expression (integral optical density value) (Caspase-3; 8 μM): 39.36 ± 1.20
XIAP protein expression (integral optical density value) (XIAP; 4 μM): 38.22 ± 0.81
XIAP protein expression (integral optical density value) (XIAP; 8 μM): 36.27 ± 1.03
IC50 (HUVECs): 2540 nM
Cell number (transmembrane cells) (HGC-27 cells; 2 μM): 33.00 ± 10.00
Cell number (transmembrane cells) (HGC-27 cells; 4 μM): 26.30 ± 13.37
Cell number (transmembrane cells) (HGC-27 cells; 8 μM): 22.44 ± 9.82
inhibition at 2 µM (HGC-27 cells; [1]): 24.6%
inhibition at 4 µM (HGC-27 cells; [1]): 39.9%
inhibition at 8 µM (HGC-27 cells; [1]): 48.7%
numbers of invasive cells (HT-1080 cells; 2 μM and 4 μM administration groups): smaller than those from the control group
numbers of invasive cells (HT-1080 cells; 8 μM administration group): No cell from 8 μM administration group invaded into the lower chamber

Source: US20180201594A1, “Compound pac-1 or salt thereof and pharmaceutical composition comprising same” (priority 2015, published 2018)
